As usually defined, the IC50 is the point on the concentration scale where inhibition reaches its midpoint.

Structures are written as SMILES.

This experiment has as its system chemiotaxis of human PMN leucocytes (PMNs) stimulated by interleukin 8. Description: chemiotaxis of human PMNs stimulated by IL-8 (48-well microchamber). Conditions: Leucocyte, 10 min, IL-8 10 ng/mL, 10 minutes incubation at 37° C., read-out: IC50 (dose inhibiting 50% of the effect), chemiotaxis induced by IL-8 (converted). Type of experiment: cell-based. The protocol: For evaluation of the compounds of the invention, polymorphonucleated blood cells were used obtained from heparinized blood of healthy adult volunteers by means of sedimentation on dextran. The mononucleated cells were removed by means of Ficoll/Hypaque, whilst the red blood cells were eliminated by treatment with hypotonic solutions. The cell vitality of the polymorphonucleated leucocytes (PMNs) was calculated by means of exclusion with Turk and Trypan Blue whilst after staining with Diff Quinck the percentage of the PM-nucleates on the cytocentrifugate was estimated (for details of the experimental techniques used see W. J. Ming et al., J. Immunol., 138, 1469, 1987). In each of the in vitro experiments, time periods of 10 minutes were used for the incubation of the PMNs with the compounds of the invention, operating at a temperature of 37° C.
In the experiments of chemiotaxis and in those designed for measuring the cytosol levels of the Ca^2+ ion, human recombinant IL-8 (Pepro Tech.) was used as stimulant: the liophilized protein was dissolved in HBSS (Hank's balanced salts solution) at a concentration of 100 ng/mL and was used after dilution in HBSS down to concentrations of 10 ng/mL in the chemiotaxis experiments and at the concentration of 25-50 ng/mL in the evaluation of the modifications of [Ca^2+]. […]

Regarding `CC(=O)[C@H](C)c1ccc(CC(C)C)cc1` [R(−)-3-[(4′-isobutyl)phenyl]butan-2-one, (R)(−)-3-[(4′-isobutyl)phenyl]butan-2-one], the IC50 was 500 pM.

The values are drawn from patent publication US9328057B2, “Chiral arylketones in the treatment of neutrophil-dependent inflammatory diseases” (DOMPE' FARMACEUTICI S.P.A., priority 2002, dated 2016).
